Source: ChEMBL document CHEMBL3886249, “Serine/threonine kinase inhibitors” (2015)

Molecular target: Mitogen-activated protein kinase 1 (Homo sapiens, UniProt P28482)
Experiment: Enzymatic Assay: Compounds were tested in an enzymatic assay using human ERK-2 (Mitogen Activated Kinase 1), recombinantly expressed as an n-terminal 6-His fusion protein in E. coli and corresponding to aa 8-360. […] Test compounds were diluted in DMSO in 3-fold serial dilutions at 100x final concentrations.

Chain of Mitogen-activated protein kinase 1 (P28482 whole entry, the tested form may be a part): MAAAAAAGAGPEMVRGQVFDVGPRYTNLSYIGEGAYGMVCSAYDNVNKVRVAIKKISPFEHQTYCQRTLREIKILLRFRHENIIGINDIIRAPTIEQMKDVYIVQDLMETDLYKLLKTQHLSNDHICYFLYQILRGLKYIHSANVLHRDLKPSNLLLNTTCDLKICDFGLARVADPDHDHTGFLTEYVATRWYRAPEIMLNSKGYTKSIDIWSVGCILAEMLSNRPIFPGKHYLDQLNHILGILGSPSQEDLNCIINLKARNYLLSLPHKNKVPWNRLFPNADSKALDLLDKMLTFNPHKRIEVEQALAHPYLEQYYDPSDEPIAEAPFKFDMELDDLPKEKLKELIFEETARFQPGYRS

SMILES	IC50
CC(C)Nc1ncc2c(n1)CN(C(=O)N[C@@H](c1ccc(C(F)(F)F)c(F)c1)c1cccc(=O)[nH]1)CC2	144 nM
CC1CC(Nc2ncc3c(n2)CN(C(=O)N[C@H](CO)c2ccc(Cl)c(F)c2)CC3)CCO1 (some centres not stated)	2.39 nM
